Measured values as given in patent publication US20040236519A1, “Libraries of confomationally constrained peptides, chiral azacrowns, and peptidomimetics and methods of making the same” (priority 2001, published 2004).

Tests used:
Sodium, Site 2 [1] = details: cited from earlier work
[2] = biological target: Potassium Channel, ATP-Sensitive; details: cited from earlier work
Sodium, Site 2 [3] = assay: Radioligand binding assay, sodium channel site 2 (NOVASCREEN); details: 1.0E−5 (single dose 10 μM); average, N = 2
Procedure: (§1) Evaluation of M40403 and M40401 in the following radioligand binding assays: potassium channels (ATP-sensitive, Ca2+Act., VI, potassium channel, CA2+Act., VS) and sodium channels (site 1 and site 2). M40403 and M40401 were tested at a single does of 10 µM. The list of an appropriate radioligand used in each ion channel assay is shown in Table 1. […].
(§2) Screening assays can provide valuable information about a compound's biological activity and selectivity. NOVASCREEN Biosciences Corporation of Hanover, Md. was used for these assays. To understand and assess the data, these guidelines are to be used for interpretation of the data presented:
(§3) In most assays, our standard baseline range runs from −20% to +20% inhibition of binding or enzyme activity. […]. NOVASCREEN's assays are designed to test for inhibition of binding or enzyme activity. […]. NOVASCREEN uses a criteria of 50% inhibition (or greater) to qualify a compound as active. Active compounds tested at multiple concentrations can generally be expected to show a dose-dependent response and such follow-up studies are recommended.

human opioid δ receptor = biological target: T1, human opioid δ receptor (Homo sapiens, UniProt P41143); assay: Opioid receptor binding, [3H]Cl-DPDPE, CHO cell membranes
T1 construct: expressed in transfected cells; host or cells: CHO cells, membranes
T1 sequence (P41143 whole entry): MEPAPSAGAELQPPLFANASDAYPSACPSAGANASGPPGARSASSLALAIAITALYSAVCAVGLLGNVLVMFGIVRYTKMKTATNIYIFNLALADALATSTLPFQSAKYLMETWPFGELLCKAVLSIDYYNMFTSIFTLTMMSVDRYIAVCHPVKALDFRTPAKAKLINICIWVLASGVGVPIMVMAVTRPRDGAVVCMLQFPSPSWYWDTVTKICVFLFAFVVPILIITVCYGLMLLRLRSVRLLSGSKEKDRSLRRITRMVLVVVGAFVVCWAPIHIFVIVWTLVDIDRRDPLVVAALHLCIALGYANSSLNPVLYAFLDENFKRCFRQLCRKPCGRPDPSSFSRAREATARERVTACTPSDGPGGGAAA
Procedure: (§4) Evaluation of M40403 binding affinity for opioid receptors in vitro radioligand binding assays. Referring to FIGS. 6-11, receptor binding studies were conducted on human opioid receptors transfected into Chinese hamster ovary (CHO) cells. The μ cell line is maintained in Ham's F-12 medium supplemented with 10% fetal bovine serum and 400 μg/ml GENETICIN (G418 sulfate). The δ cell line is maintained in Ham's F-12 medium supplemented with 10% fetal bovine serum and 500 μg/ml hygromycin B. The k cell line is maintained in Dulbecco's minimal essential medium (DMEM) supplemental with 10% fetal bovine serum, 400 μg/ml GENETICIN (G418 sulfate) and 0.1% penicillin/streptomycin. All cell lines are grown to full confluency, then harvested for membrane preparation. The membrane for binding assays is prepared in 50 mM Tris buffer, pH 7.7. Cells are harvested by scraping the plates with a rubber policeman and then centrifuged at 500×g for 10 minutes. The cell pellet is suspended in buffer A or Tris buffer, homogenized in a Polytron Homogenizer, and centrifuged at 20,000×g for 20 minutes. The cell pellet is washed in buffer A or Tris, centrifuged at 20,000×g for another 20 minutes and finally suspended in a small amount of buffer to determine protein content. Membrane is aliquoted in small vials at a concentration of 6 mg/ml per vial and stored at −70° C. and used as needed.
(§5) Routine binding assays were conducted using [^3H]DAMGO, [^3H]C1-DPDPE, and [^3H]U69,593 to bind to μ, δ and k receptors, respectively. […] Filters are dried overnight before radioactivity levels are determined. Nonspecific binding is determined by using 1.0 μM of the unlabeled counterpart of each radioligand.
(§6) Full characterization of compounds includes analysis of the data for IC50 values and Hill coefficients by using the program PRIMS. Ki values are calculated using the Cheng Prusoff transformation: [formula]
(§7) where L is radioligand concentration and Kd is the binding affinity of the radioligand, as determined previously by saturation analysis. […]

Sodium, Site 1 = assay: Radioligand binding assay, sodium channel site 1 (NOVASCREEN); details: 1.0E−5 (single dose 10 μM); average, N = 2
Procedure: as §1, §2, §3

[4] = tested on: Potassium Channel, Ca2+ Act., VS; assay: Radioligand binding assay, potassium channel, Ca2+ Act., VS (NOVASCREEN); details: 1.0E−5 (single dose 10 μM); average, N = 2
Procedure: as §1, §2, §3

[5] = tested on: Potassium Channel, ATP-Sensitive; assay: Radioligand binding assay, potassium channel, ATP-sensitive (NOVASCREEN); details: 1.0E−5 (single dose 10 μM); average, N = 2
Procedure: as §1, §2, §3

human opioid μ receptor = biological target: T2, human opioid μ receptor (Homo sapiens, UniProt P35372); assay: Opioid receptor binding, [3H]DAMGO, CHO cell membranes
T2 construct: expressed in transfected cells; host or cells: CHO cells, membranes
T2 sequence (P35372 whole entry): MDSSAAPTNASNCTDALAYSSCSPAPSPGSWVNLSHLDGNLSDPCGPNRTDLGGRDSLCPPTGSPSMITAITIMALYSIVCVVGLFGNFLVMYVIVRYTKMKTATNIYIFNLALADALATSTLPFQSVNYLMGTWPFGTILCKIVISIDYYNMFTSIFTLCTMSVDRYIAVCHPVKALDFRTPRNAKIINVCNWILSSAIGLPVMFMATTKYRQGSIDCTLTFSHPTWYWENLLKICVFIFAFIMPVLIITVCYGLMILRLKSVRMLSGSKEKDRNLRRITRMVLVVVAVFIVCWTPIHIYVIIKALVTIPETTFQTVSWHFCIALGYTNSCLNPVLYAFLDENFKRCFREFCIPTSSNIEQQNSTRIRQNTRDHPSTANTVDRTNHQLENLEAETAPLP
Procedure: as §4, §5, §6, §7

[6] = tested on: Potassium Channel, Ca2+ Act., VI; assay: Radioligand binding assay, potassium channel, Ca2+ Act., VI (NOVASCREEN); details: 1.0E−5 (single dose 10 μM); average, N = 2
Procedure: as §1, §2, §3

human opioid k receptor = biological target: T3, human opioid k receptor (Homo sapiens, UniProt P41145); assay: Opioid receptor binding, [3H]U69,593, CHO cell membranes; details: human receptor in CHO cell membranes, Cheng Prusoff
T3 construct: expressed in transfected cells; host or cells: CHO cells, membranes
T3 sequence (P41145 whole entry): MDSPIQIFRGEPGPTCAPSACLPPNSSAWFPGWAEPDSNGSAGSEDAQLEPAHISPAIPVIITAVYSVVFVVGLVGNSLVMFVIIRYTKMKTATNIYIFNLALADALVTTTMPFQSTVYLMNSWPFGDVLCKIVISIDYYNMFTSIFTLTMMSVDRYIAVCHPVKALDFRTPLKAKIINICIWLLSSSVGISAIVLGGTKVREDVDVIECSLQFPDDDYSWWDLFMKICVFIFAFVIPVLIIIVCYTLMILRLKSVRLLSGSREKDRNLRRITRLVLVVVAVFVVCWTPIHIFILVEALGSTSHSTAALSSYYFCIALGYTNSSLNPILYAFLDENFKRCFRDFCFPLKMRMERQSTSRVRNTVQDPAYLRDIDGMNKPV
Procedure: Evaluation of M40403 binding affinity for opioid receptors in vitro radioligand binding assays. Referring to FIGS. 6-11, receptor binding studies were conducted on human opioid receptors transfected into Chinese hamster ovary (CHO) cells. The μ cell line is maintained in Ham's F-12 medium supplemented with 10% fetal bovine serum and 400 μg/ml GENETICIN (G418 sulfate). The δ cell line is maintained in Ham's F-12 medium supplemented with 10% fetal bovine serum and 500 μg/ml hygromycin B. The k cell line is maintained in Dulbecco's minimal essential medium (DMEM) supplemental with 10% fetal bovine serum, 400 μg/ml GENETICIN (G418 sulfate) and 0.1% penicillin/streptomycin. […]
as §5, §6, §7

[7] = biological target: Potassium Channel, Ca2+ Act., VS; details: cited from earlier work
[8] = Competitive metal binding by ESI-MS; type: physicochemical
Procedure: The ability of these peptides to bind metals was determined by electrospray-ionization mass spectrometry (hereinafter “ESI-MS”). ESI-MS has been successfully used to study a wide variety of non-covalent interactions owing to the gentle nature of the electrospray-ionization process that allows non-covalent complexes to be introduced intact into the gas phase. Thus, ESI-MS provides equilibrium information about the solution and the relative abundance of different peptide-metal binding complexes. The peptide ligands were dissolved in 50% CH3CN or methanol and then diluted to 10 mM solution with 1 mM of CH3COONH4/10% CH3OH solution. Stock solutions (200 uM) of the metal ions (CuSO4, NiSO4, ZnSO4, HgSO4. Co(NO3)2) were made. 40 ul of the ligand solution was mixed with 40 ul of the metal-ion solution, diluted with methanol or 1 mM of CH3COONH4. The solution was treated with KOH to form the complex. Competitive binding was used to study the relative metal-binding properties of each ligand by adding two different metal ions.

[9] = biological target: Potassium Channel, Ca2+ Act., VI; details: radioligand of the assay; cited from earlier work
[10] = Giblin et al., cited from earlier work; for binding affinity reduced compared with the disulfide parent: rhenium complex
[11] = human receptor in CHO cell membranes, Cheng Prusoff

Molecule: CCN1C[C@]2(COC)[C@H](O)C[C@H](OC)[C@@]34[C@@H]5C[C@@]6(O)[C@H](OC(=O)c7ccccc7)[C@@H]5[C@@](OC(C)=O)([C@@H]([C@H](OC)[C@H]23)[C@@H]14)[C@@H](O)[C@@H]6OC [Aconitine]
- Ki (Sodium, Site 2 [1]; reference compound, radioligand [3H]Bactrachotoxin A 20-a-Benzo, read-out: Ki (M) Ref. Cpd.): 8.38e-07 M

Molecule: COc1ccc(Cl)cc1C(=O)NCCc1ccc(S(=O)(=O)NC(=O)NC2CCCCC2)cc1 [Glibenclamide]
- Ki ([2]; reference compound, radioligand [3H]Glibenclamide, read-out: Ki (M) Ref. Cpd.): 7.85e-10 M

Molecule: [Cl-].[Cl-].[Mn+2].c1cc2nc(c1)CN[C@@H]1CCCC[C@H]1NCCN[C@@H]1CCCC[C@H]1NC2 [M40403]
- Percent Inhibition (Sodium, Site 2 [3]): 93.84%
- IC50 (human opioid δ receptor; Hot Ligand [3H]DPDPE-CL, Jul. 2, 1999 and confirmation Jul. 5, 1999, read-out: IC50, Delta Binding): > 10000 nM
- Ki (human opioid δ receptor; [11]): > 10000 nM
- affinity for delta receptors (human opioid δ receptor; summary in words): no significant affinity
- Percent Inhibition (Sodium, Site 1): −19.68%
- Percent Inhibition [4]: 9.72%
- Percent Inhibition [5]: 4.67%
- IC50 (human opioid μ receptor; Hot Ligand [3H]DAMGO, Jul. 2, 1999 and confirmation Jul. 5, 1999, read-out: IC50, MU Binding): > 10000 nM
- Ki (human opioid μ receptor; [11]): > 10000 nM
- affinity for mu receptors (human opioid μ receptor; summary in words): no significant affinity
- Percent Inhibition [6]: 30.35%
- Ki (human opioid k receptor): ~240 nM
- Ki (human opioid k receptor; listed as 20,636): 240 ± 121 nM

Molecule: COc1ccc(Cl)cc1C(=O)NCCc1ccc(S(=O)(=O)NC(=O)NC2CCCCC2)cc1 [[3H]Glibenclamide]
- Kd ([2]; radioligand of the assay): 0.25 nM

Molecule: Charybdotoxin
- Ki ([7]; reference compound, radioligand [125I]Charybdotoxin, read-out: Ki (M) Ref. Cpd.): 5.12e-10 M

Molecule: H-Val-Ψ(CONOH)-Phe-Ala-Pro-Leu-CONOH [compound 14]
- metal-binding ability ([8]; among the peptides containing two hydroxymate groups, competitive binding): strongest metal-binding ability
- metal-binding specificity ([8]; competitive binding with two different metal ions): Cu(II)>Co(II)>Fe(III)>Cd(II)>Zn(II)>Ni(II)

Molecule: [3H]Bactrachotoxin A 20-a-Benzo
- Kd (Sodium, Site 2 [1]; radioligand of the assay): 32 nM

Molecule: [125I]Apamin
- Kd [9]: 0.07 nM

Molecule: [125I]Charybdotoxin
- Kd ([7]; radioligand of the assay): 0.1 nM

Molecule: [Cys^3,4,10, D-Phe7]-α-Msh4-13
- binding affinity improved over the previous rhenium complex [10]: 25 fold
- binding affinity reduced compared with the disulfide parent [10]: 4 fold

Molecule: [Cys^4,10, D-Phe7]-α-Msh4-13
- binding affinity reduced compared with the disulfide parent [10]: approximately 100 fold
